Data reported in paper PMC10041525, “New Dual Inhibitors of Bacterial Topoisomerases with Broad-Spectrum Antibacterial Activity and In Vivo Efficacy against Vancomycin-Intermediate Staphylococcus aureus” (Journal of Medicinal Chemistry, 2023).
≈ marks a conversion by molar mass, not a printed value. Read-outs that look alike come from different tables or passages of the source.

Tests used:
[1] = system: 100 A. baumannii strains (50 MDR, 50 non-MDR); test: MIC broth microdilution at IHMA Europe, panel of 100 strains; format: cell-based; details: for MIC / MIC50 / MIC90: Acinetobacter baumannii; for MIC50: read-out: MIC 50; for MIC90: read-out: MIC 90
[2] = system: E. coli ATCC 35218; test: IHMA QC MIC; format: cell-based; details: Escherichia coli, ATCC35218; read-out: MIC (QC, repeated tests)
Method: The panel of Hungarian clinical isolates and controls measured following the same method as detailed above, and albeit measurements were carried out in 384-well microtiter plates (Corning Inc.).

SMILES: CO/N=C(\C(=O)N[C@@H]1C(=O)N2C(C(=O)[O-])=C(C[N+]3(C)CCCC3)CS[C@H]12)c1csc(N)n1 [Cefepime, cefepime]
- MIC ([1]; A. baumannii IHMA 2156709, Turkey 2020, MDR, read-out: MIC): > 32 µg/mL
- MIC ([1]; A. baumannii IHMA 2177232, Lithuania 2020, MDR, read-out: MIC): 32 µg/mL (≈ 66.6 µM)
- MIC ([1]; A. baumannii IHMA 2177489, Lithuania 2020, MDR, read-out: MIC): > 32 µg/mL
- MIC ([1]; A. baumannii IHMA 2178574, Ukraine 2020, Non-MDR, read-out: MIC): ≤ 0.25 µg/mL
- MIC ([1]; A. baumannii IHMA 2180134, Malaysia 2020, Non-MDR, read-out: MIC): 1 µg/mL (≈ 2.08 µM)
- MIC ([1]; A. baumannii IHMA 2180142, Malaysia 2020, MDR, read-out: MIC): > 32 µg/mL
- MIC ([1]; A. baumannii IHMA 2181370, Morocco 2020, MDR, read-out: MIC): > 32 µg/mL
- MIC ([1]; A. baumannii IHMA 2183849, Argentina 2020, Non-MDR, read-out: MIC): 1 µg/mL (≈ 2.08 µM)
- MIC ([1]; A. baumannii IHMA 2184382, Japan 2020, Non-MDR, read-out: MIC): 1 µg/mL (≈ 2.08 µM)
- MIC ([1]; A. baumannii IHMA 2193375, Venezuela 2020, MDR, read-out: MIC): > 32 µg/mL
- MIC ([1]; A. baumannii IHMA 2193485, Venezuela 2020, Non-MDR, read-out: MIC): 1 µg/mL (≈ 2.08 µM)
- MIC ([1]; A. baumannii IHMA 2193607, Venezuela 2020, MDR, read-out: MIC): > 32 µg/mL
- MIC ([1]; A. baumannii IHMA 2196914, South Africa 2020, MDR, read-out: MIC): 32 µg/mL (≈ 66.6 µM)
- MIC ([1]; A. baumannii IHMA 2196959, South Africa 2020, MDR, read-out: MIC): > 32 µg/mL
- MIC ([1]; A. baumannii IHMA 2203763, Spain 2020, MDR, read-out: MIC): > 32 µg/mL
- MIC ([1]; A. baumannii IHMA 2205144, Korea, South 2020, MDR, read-out: MIC): 32 µg/mL (≈ 66.6 µM)
- MIC ([1]; A. baumannii IHMA 2206459, Taiwan 2020, MDR, read-out: MIC): > 32 µg/mL
- MIC ([1]; A. baumannii IHMA 2206507, Taiwan 2020, Non-MDR, read-out: MIC): 0.5 µg/mL (≈ 1.04 µM)
- MIC ([1]; A. baumannii IHMA 2215307, Hong Kong 2020, Non-MDR, read-out: MIC): 1 µg/mL (≈ 2.08 µM)
- MIC ([1]; A. baumannii IHMA 2216586, Taiwan 2020, MDR, read-out: MIC): 32 µg/mL (≈ 66.6 µM)
- MIC ([1]; A. baumannii IHMA 2223200, Colombia 2020, Non-MDR, read-out: MIC): 1 µg/mL (≈ 2.08 µM)
- MIC ([1]; A. baumannii IHMA 2224017, Panama 2020, MDR, read-out: MIC): 32 µg/mL (≈ 66.6 µM)
- MIC ([1]; A. baumannii IHMA 2224303, Panama 2020, Non-MDR, read-out: MIC): 4 µg/mL (≈ 8.32 µM)
- MIC ([1]; A. baumannii IHMA 2231797, Greece 2020, MDR, read-out: MIC): > 32 µg/mL
- MIC ([1]; A. baumannii IHMA 2233099, Guatemala 2020, MDR, read-out: MIC): > 32 µg/mL
- MIC ([1]; A. baumannii IHMA 2233430, Kazakhstan 2020, MDR, read-out: MIC): > 32 µg/mL
- MIC ([1]; A. baumannii IHMA 2238964, Thailand 2020, MDR, read-out: MIC): > 32 µg/mL
- MIC ([1]; A. baumannii IHMA 2239052, Thailand 2020, Non-MDR, read-out: MIC): 0.5 µg/mL (≈ 1.04 µM)
- MIC ([1]; A. baumannii IHMA 2261633, Canada 2020, Non-MDR, read-out: MIC): 0.5 µg/mL (≈ 1.04 µM)
- MIC ([1]; A. baumannii IHMA 2274234, South Africa 2020, MDR, read-out: MIC): 32 µg/mL (≈ 66.6 µM)
- MIC ([1]; A. baumannii IHMA 2274364, South Africa 2020, MDR, read-out: MIC): > 32 µg/mL
- MIC ([1]; A. baumannii IHMA 2275237, Chile 2020, Non-MDR, read-out: MIC): 1 µg/mL (≈ 2.08 µM)
- MIC ([1]; A. baumannii IHMA 2275751, Jordan 2020, MDR, read-out: MIC): > 32 µg/mL
- MIC ([1]; A. baumannii IHMA 2316205, United States 2020, MDR, read-out: MIC): > 32 µg/mL
- MIC ([1]; MDR n = 50, read-out: MAX (maximum MIC; all strains inhibited)): > 32 µg/mL
- MIC50 ([1]; MDR n = 50): > 32 µg/mL
- MIC90 ([1]; MDR n = 50): > 32 µg/mL
- MIC ([1]; all isolates n = 100, read-out: MAX (maximum MIC; all strains inhibited)): > 32 µg/mL
- MIC50 ([1]; all isolates n = 100): 8 µg/mL (≈ 16.6 µM)
- MIC90 ([1]; all isolates n = 100): > 32 µg/mL
- MIC ([1]; all isolates n = 100, read-out: MIN (minimum MIC)): ≤ 0.25 µg/mL
- MIC ([1]; non-MDR n = 50, read-out: MAX (maximum MIC)): 8 µg/mL (≈ 16.6 µM)
- MIC50 ([1]; non-MDR n = 50): 1 µg/mL (≈ 2.08 µM)
- MIC90 ([1]; non-MDR n = 50): 4 µg/mL (≈ 8.32 µM)
- MIC ([1]; non-MDR n = 50, read-out: MIN (minimum MIC)): ≤ 0.25 µg/mL
- Percentage I ([1]; MDR n = 50): 6%
- Percentage S ([1]; MDR n = 50): 0%
- Percentage I ([1]; all n = 100, CLSI breakpoints): 3%
- Percentage R ([1]; all n = 100, CLSI breakpoints): 47%
- Percentage S ([1]; all n = 100, CLSI breakpoints): 50%
- Percentage I ([1]; non-MDR n = 50): 0%
- Percentage R ([1]; non-MDR n = 50): 0%
- MIC [2]: ≤ 0.25 µg/mL
